ChEMBL document CHEMBL1201862, “PubChem BioAssay data set” (2004)
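1) Cells in 96-well plates. 2) Compound, 48 h, 5 concentrations. 3) Linear interpolation between surrounding doses. 4) Unreached endpoint = highest concentration. Abbreviation: GI50, concentration required for 50% inhibition of growth.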 Activity calls are given as the source filed them. Rule as the data show it: active = GI50 up to about 1.1 µM and inactive = higher.

Key:
Experiment in all cases: growth of human tumour cells (NCI), 48 h
Malme-3M = system: Malme-3M
LOX IMVI = system: LOX IMVI
HOP-62 = system: HOP-62
786-0 = system: 786-0
MCF7 = system: MCF7
NCI/ADR-RES = system: NCI/ADR-RES
COLO 205 = system: COLO 205
SW-620 = system: SW-620
KM12 = system: KM12
PC-3 = system: PC-3
MDA-N = system: MDA-N
HOP-92 = system: HOP-92
U-251 = system: U-251
UACC-257 = system: UACC-257
OVCAR-4 = system: OVCAR-4
RXF 393 = system: RXF 393
SK-OV-3 = system: SK-OV-3
SNB-19 = system: SNB-19
BT-549 = system: BT-549
SNB-75 = system: SNB-75

Row | SMILES | GI50 (Malme-3M) | GI50 (LOX IMVI) | GI50 (HOP-62) | GI50 (786-0) | GI50 (MCF7) | GI50 (NCI/ADR-RES) | GI50 (COLO 205) | GI50 (SW-620) | GI50 (KM12) | GI50 (PC-3) | GI50 (MDA-N) | GI50 (HOP-92) | GI50 (U-251) | GI50 (UACC-257) | GI50 (OVCAR-4) | GI50 (RXF 393) | GI50 (SK-OV-3) | GI50 (SNB-19) | GI50 (BT-549) | GI50 (SNB-75)
1 | COc1cccc(C2c3cc4c(cc3OC(NNC(N)=O)C2C)OCO4)c1O (stereo not given) | 0.745 µM (active) | 0.933 µM (active) | 1.35 µM (inactive) | 1.52 µM (inactive) | 0.491 µM (active) | 3.36 µM (inactive) | 1.78 µM (inactive) | 0.569 µM (active) | 0.731 µM (active) | 1.15 µM (inactive) | 0.213 µM (active) | 0.269 µM (active) | 1.07 µM (active) | 3.42 µM (inactive) | 38.8 µM (inactive) | 0.766 µM (active) | 5.94 µM (inactive) | 9.14 µM (inactive) | 33 µM (inactive) | 4.33 µM (inactive)
2 | COc1ccc(O)c(/C=N/NC(=S)N2CCCCC2)c1 | 1.71 µM (inactive) | 0.767 µM (active) | 1.35 µM (inactive) | 1.15 µM (inactive) | 7.96 µM (inactive) | 1.77 µM (inactive) | 2.98 µM (inactive) | 2.88 µM (inactive) | 4.38 µM (inactive) | 5 µM (inactive) | 7.8 µM (inactive) | 5.18 µM (inactive) | 1.85 µM (inactive) | 6.04 µM (inactive) | 4.59 µM (inactive) | 7.73 µM (inactive) | 2.16 µM (inactive) | 4.51 µM (inactive) | 3.77 µM (inactive) | 10.5 µM (inactive)
3 | Cc1sc2ccccc2[n+]1CCC(=O)O | > 100 µM (inactive) | > 100 µM (inactive) | > 100 µM (inactive) | > 100 µM (inactive) | > 100 µM (inactive) | > 100 µM (inactive) | > 100 µM (inactive) | > 100 µM (inactive) | > 100 µM (inactive) | > 100 µM (inactive) | > 100 µM (inactive) | > 100 µM (inactive) | > 100 µM (inactive) | > 100 µM (inactive) | > 100 µM (inactive) | > 100 µM (inactive) | > 100 µM (inactive) | > 100 µM (inactive) | > 100 µM (inactive) | > 100 µM (inactive)
4 | CC(=O)O[C@H]1C(=O)[C@]2(C)[C@@H](OC(=O)OCCC(O)CO)C[C@H]3OC[C@@]3(OC(C)=O)[C@H]2[C@H](OC(=O)c2ccccc2)[C@]2(O)C[C@H](OC(=O)[C@H](O)[C@@H](NC(=O)c3ccccc3)c3ccccc3)C(C)=C1C2(C)C (stereo not given in full) | < 0.01 µM (active) | < 0.01 µM (active) | 0.0964 µM (active) | 0.08 µM (active) | < 0.01 µM (active) | 15.2 µM (inactive) | < 0.01 µM (active) | < 0.0251 µM (active) | < 0.01 µM (active) | < 0.0128 µM (active) | < 0.01 µM (active) | 8.63 µM (inactive) | 0.0135 µM (active) | 0.037 µM (active) | 13.9 µM (inactive) | 0.213 µM (active) | 0.0307 µM (active) | 0.0445 µM (active) | 0.0667 µM (active) | < 0.01 µM (active)
5 | CC12NC(=C(C#N)C#N)C(C#N)=C3NC(N)=C(C#N)C(=C31)Oc1ccccc12 (stereo not given) | 20.6 µM (inactive) | 5.83 µM (inactive) | 5.04 µM (inactive) | 18.5 µM (inactive) | > 35.6 µM (inactive) | > 100 µM (inactive) | 4.71 µM (inactive) | > 26.6 µM (inactive) | 3.77 µM (inactive) | 30.1 µM (inactive) | 14.6 µM (inactive) | > 21.5 µM (inactive) | 18.1 µM (inactive) | > 100 µM (inactive) | 62.1 µM (inactive) | 2.53 µM (inactive) | 75 µM (inactive) | > 40.7 µM (inactive) | > 24.8 µM (inactive) | > 57.1 µM (inactive)
6 | CC(NNC(=O)c1ccncc1)c1ccccc1 (stereo not given) | > 100 µM (inactive) | > 100 µM (inactive) | > 100 µM (inactive) | > 100 µM (inactive) | > 100 µM (inactive) | > 100 µM (inactive) | > 100 µM (inactive) | > 100 µM (inactive) | > 100 µM (inactive) | > 100 µM (inactive) | > 100 µM (inactive) | > 100 µM (inactive) | > 100 µM (inactive) | > 100 µM (inactive) | > 100 µM (inactive) | > 100 µM (inactive) | > 100 µM (inactive) | > 100 µM (inactive) | > 100 µM (inactive) | > 100 µM (inactive)
7 | CCCCCCOc1ccc(C(=O)N(C)O)cc1 | 14.1 µM (inactive) | 7.52 µM (inactive) | 11 µM (inactive) | 12.4 µM (inactive) | 28.9 µM (inactive) | 10.1 µM (inactive) | 14.2 µM (inactive) | 10.2 µM (inactive) | 24 µM (inactive) | 12.1 µM (inactive) | 27.6 µM (inactive) | 21.1 µM (inactive) | 12.5 µM (inactive) | 36.6 µM (inactive) | 31.4 µM (inactive) | 13.1 µM (inactive) | 18.8 µM (inactive) | 24.2 µM (inactive) | 33.7 µM (inactive) | 27.3 µM (inactive)
8 | CC(C)OP(=O)(OC(C)C)C(C(C)C)N(C)/C(N)=N/C#N (stereo not given) | > 100 µM (inactive) | > 100 µM (inactive) | > 100 µM (inactive) | > 10 µM (inactive) | > 100 µM (inactive) | > 100 µM (inactive) | > 100 µM (inactive) | > 100 µM (inactive) | > 100 µM (inactive) | > 100 µM (inactive) | > 100 µM (inactive) | > 100 µM (inactive) | > 100 µM (inactive) | > 100 µM (inactive) | > 100 µM (inactive) | > 100 µM (inactive) | > 100 µM (inactive) | > 100 µM (inactive) | > 100 µM (inactive) | > 100 µM (inactive)
9 | CC(=O)NNc1nc(C)c(C(/C=C/c2ccc3c(c2)OCO3)=N/Nc2ccccc2)s1 | > 100 µM (inactive) | > 100 µM (inactive) | > 100 µM (inactive) | > 100 µM (inactive) | > 100 µM (inactive) | > 100 µM (inactive) | > 100 µM (inactive) | > 100 µM (inactive) | > 100 µM (inactive) | > 100 µM (inactive) | > 100 µM (inactive) | > 100 µM (inactive) | > 100 µM (inactive) | > 100 µM (inactive) | > 100 µM (inactive) | > 100 µM (inactive) | > 100 µM (inactive) | > 100 µM (inactive) | > 100 µM (inactive) | > 100 µM (inactive)
10 | Cc1cc(O)nc(NN2C(Cl)C(=O)C2c2ccc(Cl)cc2)n1 (stereo not given) | 16.8 µM (inactive) | 4.15 µM (inactive) | 19.6 µM (inactive) | 15.6 µM (inactive) | 12.8 µM (inactive) | 20.7 µM (inactive) | 17.2 µM (inactive) | 22.5 µM (inactive) | 10.6 µM (inactive) | 32.7 µM (inactive) | 8.53 µM (inactive) | 12.9 µM (inactive) | 20.5 µM (inactive) | 21.6 µM (inactive) | 22.9 µM (inactive) | 17.4 µM (inactive) | 41.8 µM (inactive) | 19.4 µM (inactive) | 20.5 µM (inactive) | 17.4 µM (inactive)
11 | C=C1C(=O)OC2C1C(OC(=O)/C(C)=C/C)CC(O)(CCl)C1C(OC(C)=O)C=C(C)C21O (stereo not given) | 3.34 µM (inactive) | 6.49 µM (inactive) | 34.8 µM (inactive) | 11.6 µM (inactive) | 6.56 µM (inactive) | 16.3 µM (inactive) | 8.3 µM (inactive) | 3.98 µM (inactive) | 19.2 µM (inactive) | 16.1 µM (inactive) | 16.8 µM (inactive) | 13.1 µM (inactive) | 20.2 µM (inactive) | 16.5 µM (inactive) | 17.2 µM (inactive) | 11.2 µM (inactive) | 37 µM (inactive) | > 42.9 µM (inactive) | 8.85 µM (inactive) | 21.8 µM (inactive)
12 | COc1cc2c(cc1OC)C/C(=N\O)c1cc(OC)c(OC)cc1/C=C\2 | 1.48 µM (inactive) | 6.4 µM (inactive) | 2.82 µM (inactive) | 5.52 µM (inactive) | 5.27 µM (inactive) | 5.55 µM (inactive) | 4.91 µM (inactive) | 3.48 µM (inactive) | 5.2 µM (inactive) | 10.2 µM (inactive) | 1.42 µM (inactive) | 43.8 µM (inactive) | 4.66 µM (inactive) | 10.4 µM (inactive) | 55.5 µM (inactive) | 5.25 µM (inactive) | 13.1 µM (inactive) | 7.08 µM (inactive) | 28.7 µM (inactive) | 5.31 µM (inactive)
13 | Cc1cc(S(=O)(=O)Nc2nc3cccnc3[nH]2)c(S)cc1Cl | > 100 µM (inactive) | 83 µM (inactive) | > 100 µM (inactive) | > 100 µM (inactive) | > 100 µM (inactive) | > 100 µM (inactive) | > 100 µM (inactive) | > 100 µM (inactive) | > 100 µM (inactive) | 92.3 µM (inactive) | > 100 µM (inactive) | > 100 µM (inactive) | 63.2 µM (inactive) | > 100 µM (inactive) | 79.4 µM (inactive) | > 100 µM (inactive) | > 100 µM (inactive) | 77.8 µM (inactive) | > 100 µM (inactive) | > 100 µM (inactive)
14 | C=C1c2nc3ccccc3n2C=C(c2ccc(OC)cc2)N1c1ccc(OCCN2CCOCC2)cc1 | 6.52 µM (inactive) | 13.3 µM (inactive) | > 100 µM (inactive) | 36.9 µM (inactive) | 12.3 µM (inactive) | 5.21 µM (inactive) | 10.8 µM (inactive) | 44.3 µM (inactive) | 15.8 µM (inactive) | 9.51 µM (inactive) | > 75.2 µM (inactive) | > 40.9 µM (inactive) | > 93.3 µM (inactive) | 7.13 µM (inactive) | 11.1 µM (inactive) | 71.6 µM (inactive) | > 100 µM (inactive) | > 100 µM (inactive) | 49.2 µM (inactive) | > 100 µM (inactive)
